Source: ChEMBL document CHEMBL1139550, “1-Acyl-1H-[1,2,4]triazole-3,5-diamine analogues as novel and potent anticancer cyclin-dependent kinase inhibitors: synthesis and evaluation of biological activities” (J Med Chem, 2005)
Several values for one entry are separate records, joined by “and”; a condition that tells them apart may be missing. Identical values can stand only once.

Key:
[1] = biological target: Cyclin-dependent kinase 1/cyclin B (Homo sapiens, UniProt P06493); assay: Inhibition of Cyclin B-cyclin-dependent kinase 1; assay type: protein-complex assay
[2] = test system: MDA-MB-231; assay: In vitro inhibitory concentration against cell proliferation in human MDA-MB-231 (breast carcinoma) tumor cells; assay type: functional, cell-based
[3] = test system: HeLa; assay: In vitro inhibitory concentration against cell proliferation in human HeLa (cervical adenocarcinoma) tumor cells; assay type: functional, cell-based
[4] = test system: HCT-116; assay: In vitro inhibitory concentration against cell proliferation in human HCT116 (colon carcinoma) tumor cells; assay type: functional, cell-based
[5] = test system: PC-3; assay: In vitro inhibitory concentration against cell proliferation in human PC-3 (prostate adenocarcinoma) tumor cells; assay type: functional, cell-based
[6] = test system: A-375; assay: In vitro inhibitory concentration against cell proliferation in human A375 (malignant melanoma),tumor cells; assay type: functional, cell-based
[7] = test system: MDA-MB-231; assay: In vitro inhibitory concentration against cell proliferation in various human MDA-MB-231 (breast carcinoma) tumor cells; assay type: functional, cell-based
[8] = test system: SK-OV-3; assay: In vitro inhibitory concentration against cell proliferation in human SK-OV-3 (ovarian adenocarcinoma) tumor cells; assay type: functional, cell-based
[9] = Inhibition of Platelet-derived growth factor receptor beta
[10] = biological target: Casein kinase II (Homo sapiens, UniProt P19784+P67870+P68400); assay: Inhibition of Casein kinase-2; assay type: protein-complex assay
[11] = test system: A-375; assay: In vitro inhibitory concentration against cell proliferation in human A375 (malignant melanoma) tumor cells; assay type: functional, cell-based
[12] = biological target: Protein kinase C beta type (Homo sapiens, UniProt P05771); assay: Inhibition of Protein kinase C- beta 2
[13] = biological target: Cyclin-dependent kinase 2/cyclin A (Homo sapiens, UniProt P24941); assay: Inhibition of Cyclin-dependent kinase 2-cyclin A; assay type: protein-complex assay
[14] = biological target: Cyclin-dependent kinase 4/cyclin D1 (Homo sapiens, UniProt P11802); assay: Inhibition of Cyclin-dependent kinase 4-cyclin D1; assay type: protein-complex assay
[15] = Inhibition of Protein kinase-C alpha/gamma
[16] = biological target: Glycogen synthase kinase-3 (Homo sapiens, UniProt P49840+P49841); assay: Inhibition of Glycogen synthase kinase-3; assay type: protein assay
[17] = biological target: Fibroblast growth factor receptor 2 (Homo sapiens, UniProt P21802); assay: Inhibition of Fibroblast growth factor receptor 2
[18] = Area under concentration time curve after 30 mg/kg of oral dose in nude mice; assay type: ADME, organism-based; design: dose 30 mg/kg, route oral; settings: mouse, in vivo
[19] = Bioavailability in mouse (nude) (dose 30 mg/kg p.o.); assay type: ADME, organism-based; settings: in vivo, po
[20] = Maximum plasma concentration after intravenous administration of 3 mg/kg in nude mice; assay type: ADME, organism-based; design: dose 3 mg/kg, route intravenous; settings: mouse
[21] = Maximum plasma concentration after oral administration of 30 mg/kg in nude mice; assay type: ADME, organism-based; design: dose 30 mg/kg, route oral; settings: mouse
[22] = biological target: CaM kinase II (Homo sapiens, UniProt Q13557+Q13555+Q13554+Q9UQM7); assay: Inhibition of [Ca(2+)]/calmodulin dependent kinase; assay type: protein assay
[23] = biological target: Casein kinase I; assay: Inhibition of human casein kinase-1; assay type: protein assay
[24] = Half life after oral administration of 30 mg/kg; assay type: ADME, organism-based; design: dose 30 mg/kg, route oral; settings: rat, in vivo
[25] = biological target: Mitogen-activated protein kinase; ERK1/ERK2 (Homo sapiens, UniProt P27361+P28482); assay: Inhibition of Mitogen-activated protein kinase 1; assay type: protein assay
[26] = Inhibition of Protein kinase A
[27] = biological target: Vascular endothelial growth factor receptor 2 (Homo sapiens, UniProt P35968); assay: Inhibition of Vascular endothelial growth factor receptor 2
[28] = Half life after intravenous administration of 3 mg/kg; assay type: ADME, organism-based; design: dose 3 mg/kg, route intravenous; settings: rat, in vivo
[29] = Area under concentration time curve after 3 mg/kg […] in nude mice; assay type: ADME, organism-based; design: dose 3 mg/kg; settings: mouse, in vivo
[30] = test system: HeLa; assay: In vitro inhibitory concentration against cell proliferation in s human HeLa (cervical adenocarcinoma),tumor cells; assay type: functional, cell-based
[31] = Maximum plasma concentration after oral administration of 10 mg/kg in dog; assay type: ADME, organism-based, Canis lupus familiaris; design: dose 10 mg/kg, route oral
[32] = Bioavailability in dog after 10 mg/kg oral dose; assay type: ADME, organism-based, Canis lupus familiaris; settings: in vivo, read-out: Bioavailabiility
[33] = Area under concentration time curve after 3 mg/kg […] in rat; assay type: ADME, organism-based; design: dose 3 mg/kg; settings: in vivo
[34] = Half life after intravenous administration of 1 mg/kg; assay type: ADME, organism-based, Canis lupus familiaris; design: dose 1 mg/kg, route intravenous; settings: dog, in vivo
[35] = test system: Mus musculus; assay: Mean day of survival after intraperitoneal administration of 100 mg/kg in mice; assay type: functional
[36] = Maximum plasma concentration after intravenous administration of 1 mg/kg in dog; assay type: ADME, organism-based, Canis lupus familiaris; design: dose 1 mg/kg, route intravenous
[37] = Area under concentration time curve after 1 mg/kg of intravenous dose in dog; assay type: ADME, organism-based, Canis lupus familiaris; design: dose 1 mg/kg, route intravenous; settings: in vivo
[38] = Half life after oral administration of 10 mg/kg; assay type: ADME, organism-based, Canis lupus familiaris; design: dose 10 mg/kg, route oral; settings: dog, in vivo
[39] = Maximum plasma concentration after intravenous administration of 3 mg/kg in rat; assay type: ADME, organism-based; design: dose 3 mg/kg, route intravenous
[40] = Bioavailability in rat after 30 mg/kg oral dose; assay type: ADME, organism-based; settings: in vivo, read-out: Bioavailabiility
[41] = Area under concentration time curve after 10 mg/kg of oral dose in dog; assay type: ADME, organism-based, Canis lupus familiaris; design: dose 10 mg/kg, route oral; settings: in vivo
[42] = Maximum plasma concentration after oral administration of 30 mg/kg in rat; assay type: ADME, organism-based; design: dose 30 mg/kg, route oral
[43] = test system: Mus musculus; assay: Mean day of survival after intraperitoneal administration of 75 mg/kg in mice; assay type: functional
[44] = Area under concentration time curve after 30 mg/kg of oral dose in rat; assay type: ADME, organism-based; design: dose 30 mg/kg, route oral; settings: in vivo

Protein kinase C beta type, sequence (P05771 whole entry): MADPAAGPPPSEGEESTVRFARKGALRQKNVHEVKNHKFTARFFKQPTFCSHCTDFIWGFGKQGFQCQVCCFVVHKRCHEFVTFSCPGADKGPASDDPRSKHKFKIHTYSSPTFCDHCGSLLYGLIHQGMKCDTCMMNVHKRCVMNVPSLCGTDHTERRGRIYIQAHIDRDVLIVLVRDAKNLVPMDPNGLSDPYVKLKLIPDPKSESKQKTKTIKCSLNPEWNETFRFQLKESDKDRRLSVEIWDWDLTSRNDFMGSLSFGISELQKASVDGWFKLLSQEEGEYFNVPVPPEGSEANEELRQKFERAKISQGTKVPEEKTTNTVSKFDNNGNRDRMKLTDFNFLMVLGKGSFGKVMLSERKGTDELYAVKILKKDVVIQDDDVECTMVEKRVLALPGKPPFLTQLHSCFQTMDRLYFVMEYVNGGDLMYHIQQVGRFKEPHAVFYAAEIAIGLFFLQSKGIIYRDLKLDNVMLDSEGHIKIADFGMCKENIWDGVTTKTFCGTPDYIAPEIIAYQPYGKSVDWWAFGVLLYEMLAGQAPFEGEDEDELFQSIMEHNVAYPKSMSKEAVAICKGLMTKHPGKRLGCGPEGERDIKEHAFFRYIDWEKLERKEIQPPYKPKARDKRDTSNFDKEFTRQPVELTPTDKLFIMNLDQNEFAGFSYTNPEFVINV
Fibroblast growth factor receptor 2, sequence (P21802 whole entry): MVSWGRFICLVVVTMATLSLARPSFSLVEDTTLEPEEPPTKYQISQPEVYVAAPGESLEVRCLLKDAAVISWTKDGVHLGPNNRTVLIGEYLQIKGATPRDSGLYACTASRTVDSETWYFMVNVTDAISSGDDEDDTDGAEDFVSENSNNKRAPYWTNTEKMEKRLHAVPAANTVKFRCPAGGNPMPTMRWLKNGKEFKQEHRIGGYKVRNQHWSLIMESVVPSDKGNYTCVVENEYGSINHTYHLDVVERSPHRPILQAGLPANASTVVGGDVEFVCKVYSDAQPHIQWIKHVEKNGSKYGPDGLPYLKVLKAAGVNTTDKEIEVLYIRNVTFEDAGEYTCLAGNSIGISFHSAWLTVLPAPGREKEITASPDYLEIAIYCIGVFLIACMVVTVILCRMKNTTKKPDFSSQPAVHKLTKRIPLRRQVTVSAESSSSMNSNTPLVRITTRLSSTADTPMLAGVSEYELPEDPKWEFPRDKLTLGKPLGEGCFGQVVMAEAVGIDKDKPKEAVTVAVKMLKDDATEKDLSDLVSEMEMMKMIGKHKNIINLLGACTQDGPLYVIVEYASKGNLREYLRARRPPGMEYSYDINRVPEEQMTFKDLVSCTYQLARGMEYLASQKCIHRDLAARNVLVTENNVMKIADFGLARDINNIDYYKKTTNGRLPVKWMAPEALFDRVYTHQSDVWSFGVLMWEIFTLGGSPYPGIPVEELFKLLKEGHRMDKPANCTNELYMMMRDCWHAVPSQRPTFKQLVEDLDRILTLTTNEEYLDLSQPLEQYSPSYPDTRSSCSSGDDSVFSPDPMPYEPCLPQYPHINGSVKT
Casein kinase II, sequence (P67870 whole entry): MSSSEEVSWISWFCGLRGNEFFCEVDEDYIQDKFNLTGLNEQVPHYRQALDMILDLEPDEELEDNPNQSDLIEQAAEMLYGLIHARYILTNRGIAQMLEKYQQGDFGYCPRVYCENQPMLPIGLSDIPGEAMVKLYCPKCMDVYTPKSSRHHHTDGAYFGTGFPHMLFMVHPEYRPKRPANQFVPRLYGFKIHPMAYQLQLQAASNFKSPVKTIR
Casein kinase II, sequence (P68400 whole entry): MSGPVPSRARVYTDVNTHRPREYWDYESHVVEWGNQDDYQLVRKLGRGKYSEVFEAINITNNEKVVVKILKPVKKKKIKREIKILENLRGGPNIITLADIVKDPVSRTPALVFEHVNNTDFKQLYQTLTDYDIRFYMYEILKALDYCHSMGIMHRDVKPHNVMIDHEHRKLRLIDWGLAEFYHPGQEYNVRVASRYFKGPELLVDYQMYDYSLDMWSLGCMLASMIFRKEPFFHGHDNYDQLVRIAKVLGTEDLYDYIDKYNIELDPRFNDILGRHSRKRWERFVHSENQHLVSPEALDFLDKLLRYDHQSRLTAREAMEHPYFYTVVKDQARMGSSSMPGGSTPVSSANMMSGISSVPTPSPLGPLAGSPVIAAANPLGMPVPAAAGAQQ
Casein kinase II, sequence (P19784 whole entry): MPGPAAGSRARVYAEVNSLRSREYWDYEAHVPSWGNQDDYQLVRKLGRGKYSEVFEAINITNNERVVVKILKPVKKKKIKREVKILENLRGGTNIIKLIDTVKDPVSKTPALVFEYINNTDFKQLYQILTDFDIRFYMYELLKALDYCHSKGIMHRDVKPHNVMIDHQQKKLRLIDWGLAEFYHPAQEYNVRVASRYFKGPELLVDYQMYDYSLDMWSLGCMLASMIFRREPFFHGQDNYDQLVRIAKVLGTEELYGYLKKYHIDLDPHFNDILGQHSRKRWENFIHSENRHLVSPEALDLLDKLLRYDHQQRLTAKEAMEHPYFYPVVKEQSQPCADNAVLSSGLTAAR
Cyclin-dependent kinase 4/cyclin D1, sequence (P11802 whole entry): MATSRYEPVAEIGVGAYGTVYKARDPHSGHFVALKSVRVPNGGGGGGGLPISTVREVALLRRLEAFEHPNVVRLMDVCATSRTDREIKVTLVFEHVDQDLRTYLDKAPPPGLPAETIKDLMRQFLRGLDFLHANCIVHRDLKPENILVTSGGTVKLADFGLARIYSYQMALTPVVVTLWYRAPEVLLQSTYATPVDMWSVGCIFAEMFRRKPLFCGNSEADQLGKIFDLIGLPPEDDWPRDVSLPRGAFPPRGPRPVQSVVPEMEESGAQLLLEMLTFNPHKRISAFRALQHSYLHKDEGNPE
Cyclin-dependent kinase 4/cyclin D1, sequence (P24385 whole entry, further chain): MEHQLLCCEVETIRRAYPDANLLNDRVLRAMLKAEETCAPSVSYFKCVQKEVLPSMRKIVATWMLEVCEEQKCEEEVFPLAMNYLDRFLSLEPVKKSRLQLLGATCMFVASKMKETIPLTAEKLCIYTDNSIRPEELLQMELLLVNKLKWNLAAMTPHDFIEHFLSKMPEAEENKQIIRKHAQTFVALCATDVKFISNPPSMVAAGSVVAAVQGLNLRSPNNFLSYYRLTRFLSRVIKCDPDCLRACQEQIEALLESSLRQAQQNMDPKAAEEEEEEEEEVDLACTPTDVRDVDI
Vascular endothelial growth factor receptor 2, sequence (P35968 whole entry): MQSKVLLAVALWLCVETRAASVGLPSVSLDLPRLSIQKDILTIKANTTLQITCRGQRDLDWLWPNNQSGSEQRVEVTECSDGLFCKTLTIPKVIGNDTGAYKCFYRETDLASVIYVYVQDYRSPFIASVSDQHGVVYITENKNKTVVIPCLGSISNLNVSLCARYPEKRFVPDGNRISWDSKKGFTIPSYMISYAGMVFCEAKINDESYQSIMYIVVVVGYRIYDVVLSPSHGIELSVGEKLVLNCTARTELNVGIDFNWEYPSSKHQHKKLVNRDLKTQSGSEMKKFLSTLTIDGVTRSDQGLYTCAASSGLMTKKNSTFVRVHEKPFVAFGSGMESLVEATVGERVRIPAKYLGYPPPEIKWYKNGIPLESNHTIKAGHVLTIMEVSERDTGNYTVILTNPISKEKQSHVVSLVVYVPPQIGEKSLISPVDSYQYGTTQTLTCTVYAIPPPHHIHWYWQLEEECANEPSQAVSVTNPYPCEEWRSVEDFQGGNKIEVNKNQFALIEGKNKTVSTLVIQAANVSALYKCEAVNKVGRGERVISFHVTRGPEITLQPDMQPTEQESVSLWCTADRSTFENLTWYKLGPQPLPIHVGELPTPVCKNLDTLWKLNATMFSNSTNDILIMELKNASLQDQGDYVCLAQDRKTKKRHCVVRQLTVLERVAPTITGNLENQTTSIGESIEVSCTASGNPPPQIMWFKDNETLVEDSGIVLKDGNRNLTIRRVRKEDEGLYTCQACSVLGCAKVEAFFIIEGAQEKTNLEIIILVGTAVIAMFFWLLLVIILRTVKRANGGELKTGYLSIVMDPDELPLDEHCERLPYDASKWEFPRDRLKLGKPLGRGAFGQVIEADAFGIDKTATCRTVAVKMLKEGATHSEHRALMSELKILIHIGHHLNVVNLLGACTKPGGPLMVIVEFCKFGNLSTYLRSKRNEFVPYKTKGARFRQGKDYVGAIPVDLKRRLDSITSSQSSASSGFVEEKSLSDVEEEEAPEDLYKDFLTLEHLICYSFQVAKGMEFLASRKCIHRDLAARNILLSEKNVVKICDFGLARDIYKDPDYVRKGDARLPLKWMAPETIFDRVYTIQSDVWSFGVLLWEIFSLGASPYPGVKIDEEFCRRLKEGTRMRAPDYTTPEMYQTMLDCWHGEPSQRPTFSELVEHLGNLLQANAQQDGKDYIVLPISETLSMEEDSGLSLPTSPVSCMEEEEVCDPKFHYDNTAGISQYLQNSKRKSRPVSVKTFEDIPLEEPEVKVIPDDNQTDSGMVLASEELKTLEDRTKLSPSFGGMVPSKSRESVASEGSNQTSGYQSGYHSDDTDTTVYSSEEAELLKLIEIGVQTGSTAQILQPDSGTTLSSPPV

For `Nc1nc(Nc2ccc(S(N)(=O)=O)cc2)nn1Cc1c(F)cccc1F`, which IC50 [1] is on record?
Its IC50 is over 100000 nM.

With `Cc1cc(C)c(C(=O)n2nc(Nc3ccc(S(N)(=O)=O)cc3)nc2N)s1` as the compound, how does the IC50 [2] read?
Its IC50 is 170 nM.

And the IC50 [3]?
The IC50 was 72 nM.

And the IC50 [4]?
The IC50 was 270 nM.

And the IC50 [5]?
Its IC50 is 37 nM.

For `N[n+]1nc(Nc2ccc(S(N)(=O)=O)cc2)nn1S(=O)(=O)c1c(F)cccc1F`, which IC50 [1] is on record?
The IC50 was 660 nM.

Which IC50 [1] does the source give for `Cc1ccc(F)c(C(=O)n2nc(N)nc2Nc2ccc(S(N)(=O)=O)cc2)c1F` here?
The IC50 was 2100 nM.

What about the IC50 [3] of the same compound?
The IC50 was 28500 nM.

And the IC50 [4]?
Its IC50 is 4100 nM.

What about the IC50 [6] of the same compound?
The IC50 was over 10000 nM.

For `CN(C)CCNS(=O)(=O)c1ccc(Nc2nc(N)n(C(=O)c3c(F)cccc3F)n2)cc1`, which IC50 [1] is on record?
Its IC50 is 130 nM.

What about the IC50 [3] of the same compound?
The IC50 was 140 nM.

With `Nc1nc(Nc2ccc(S(N)(=O)=O)cc2)nn1C(=O)c1cccs1` as the compound, how does the IC50 [3] read?
Its IC50 is 550 nM.

And the IC50 [4]?
The IC50 was 1900 nM.

And the IC50 [7]?
Its IC50 is 760 nM.

What about the IC50 [5] of the same compound?
The IC50 was 160 nM.

And the IC50 [8]?
Its IC50 is 730 nM.

What about the IC50 [6] of the same compound?
Its IC50 is 2600 nM.

For `Nc1nc(Nc2ccc(S(N)(=O)=O)cc2)nn1C(=S)Nc1c(F)cccc1F`, which IC50 [9] is on record?
Its IC50 is 1600 nM.

What about the IC50 [3] of the same compound?
Its IC50 is 35 nM.

What about the IC50 [4] of the same compound?
The IC50 was 20 nM.

And the IC50 [10]?
Its IC50 is over 100000 nM.

What about the IC50 [6] of the same compound?
The IC50 was 92 nM.

Which results are given for `Nc1nc(Nc2ccc(S(N)(=O)=O)cc2)nn1C(=O)c1sccc1F`?
IC50 [3]: 260 nM; IC50 [4]: 210 nM; IC50 [11]: 940 nM; IC50 [5]: 370 nM; IC50 [8]: 2100 nM

What does the source list for `Cc1ccsc1C(=O)n1nc(Nc2ccc(S(N)(=O)=O)cc2)nc1N`?
IC50 [12]: > 100000 nM; IC50 [13]: 0.4 nM; IC50 [9]: 310 nM; IC50 [14]: 120 nM; IC50 [15]: > 100000 nM; IC50 [16]: 26 nM; IC50 [3]: 91 nM; IC50 [4]: 130 nM; IC50 [5]: 110 nM; IC50 [10]: > 100000 nM; IC50 [17]: 180 nM; IC50 [6]: 250 nM

Which results are given for `Cc1ccc(F)c(C(=O)n2nc(Nc3ccc(S(N)(=O)=O)cc3)nc2C)c1F`?
IC50 [12]: > 100000 nM; AUC [18]: 0.55 µM·h; IC50 [13]: 0.3 nM; IC50 [9]: 10700 nM; bioavailability [19]: 20.6%; IC50 [14]: 190 nM; IC50 [15]: > 100000 nM; IC50 [16]: 31 nM; Cmax [20]: 330 nM; IC50 [1]: 8 nM and 3 nM; Cmax [21]: 430 nM; IC50 [22]: > 100000 nM; IC50 [3]: 370 nM; IC50 [23]: > 100000 nM; IC50 [4]: 880 nM; half-life [24]: 2.29 h; IC50 [25]: 9500 nM; IC50 [5]: 160 nM; IC50 [26]: > 100000 nM; IC50 [10]: > 100000 nM; IC50 [27]: 510 nM; half-life [28]: 1.94 h; IC50 [8]: 220 nM; IC50 [17]: 270 nM; AUC [29]: 0.27 µM·h

With `Nc1nc(Nc2ccc(S(N)(=O)=O)cc2)n(C(=S)c2c(F)cccc2F)n1` as the compound, how does the IC50 [3] read?
Its IC50 is 130 nM.

What about the IC50 [4] of the same compound?
Its IC50 is 910 nM.

What about the IC50 [6] of the same compound?
Its IC50 is 970 nM.

What does the source list for `Nc1nc(Nc2ccc(S(N)(=O)=O)cc2)nn1C(=O)Nc1c(F)cccc1F`?
IC50 [4]: 4700 nM; IC50 [30]: 3730 nM; IC50 [6]: 48300 nM

With `Cc1nc(Nc2ccc(S(N)(=O)=O)cc2)nn1C(=O)c1c(F)ccc(F)c1F` as the compound, how does the IC50 [1] read?
The IC50 was 3.2 nM.

And the IC50 [3]?
The IC50 was 220 nM.

And the IC50 [8]?
Its IC50 is 1600 nM.

What does the source list for `Nc1nc(Nc2ccc(S(N)(=O)=O)cc2)nn1C(=O)c1c(F)cccc1F` [JNJ-7706621]?
IC50 [12]: > 100000 nM; Cmax [31]: 4580 nM; AUC [18]: 0.74 µM·h; bioavailability [19]: 2%; bioavailability [32]: 63.3%; AUC [33]: 11.4 µM·h; half-life [34]: 3.89 h; IC50 [15]: 30100 nM; Cmax [20]: 6400 nM; Cmax [21]: 210 nM; IC50 [7]: 590 nM; T1/2 [24]: 2.2 h and 1.7 h; Mean day survival [35]: 50.1 days; IC50 [5]: 120 nM; Cmax [36]: 2190 nM; AUC [37]: 2.45 µM·h; half-life [38]: 2.36 h; IC50 [26]: > 100000 nM; Cmax [39]: 23200 nM; bioavailability [40]: 8%; AUC [41]: 15.5 µM·h; Cmax [42]: 2500 nM; T1/2 [28]: 0.64 h; half-life [28]: 0.51 h; IC50 [8]: 750 nM; IC50 [17]: 220 nM; AUC [29]: 3.2 µM·h; Mean day survival [43]: 48.5 days; AUC [44]: 9.5 µM·h
